Measured values: PubChem BioAssay AID2060908 (Molecular Pharmacology Branch, DTP, NCI, 2025)
pIC50: −log10 of the molar value.

Tested on: 186277-243-T-J2-PDC complex spheroids, viability
Experiment: Anticancer human tumor 186277-243-T-J2-PDC patient-derived colon adenocarcinoma cell line growth inhibition [RAS]
Details: for pIC50: curve of first compound; for viability, T/C: stronger effect = lower value
From the text: RAS pathway inhibitors in Combinations in Complex Spheroids
A high-throughput screen of multi-cell type tumor spheroids was designed to identify active combinations of RAS pathway inhibitors and targeted small molecules. Complex spheroids include a stromal component modeled by human endothelial cells (HUVEC) and fibroblasts modeled by human mesenchymal stem cells (MSCs). The concentration ranges selected for each drug and investigational agent were based upon clinically achievable concentrations if the clinical Cmax of the agent was known.
Compounds. The drugs and investigational agents: abemaciclib (NSC768073), cobimetinib (NSC768068), divarasib (GDC6063, NSC841802), docetaxel (NSC628503), GDC-1971 (RLY-1971, NSC841576), gemcitabine (NSC613327), inavolisib (NSC800729), ipatasertib (NSC767898), KB-0742 (NSC834161), MRTX-1133 (NSC836407), osimertinib (NSC779217), RMC-4630 (NSC839698), RMC-6236 (NSC851965), RMC-6291 (NSC852671), Ro-3306 (NSC812927), sapanisertib (NSC764658), SN-38 (NSC673596), staurosporine (NSC755774), SY5609 (NSC837396), and tovorafenib (DAY101, NSC766906), were obtained from the National Cancer Institute (NCI) Developmental Therapeutics Program Chemical Repository. The FDA-approved anticancer drug set is available from the NCI Developmental Therapeutics Program. […] The stock solutions were prepared in dimethyl sulfoxide (DMSO, Sigma-Aldrich, St. Louis, MO, cat. D2650) at 800-fold the tested concentration and stored at -70 degrees C prior to their use. All drugs and investigational agents were tested over a range starting from a high concentration at or near the clinical Cmax and decreasing in half-log increments. If the clinical Cmax for an agent had not been determined, the highest concentration tested was 10 microM.
Cell Culture. All cells were maintained in an incubator at 37 degrees C and 5% CO2 with 95% humidity. The PDC lines were cultured according to standard operating procedures established by the NCI PDMR. All PDCs were thawed and cultured in Matrigel-coated flasks prepared with a working solution of 1X Ham's F-12 nutrient mix, without supplementation (Invitrogen, Waltham, MA, cat. 11765054), 100 U/mL penicillin-streptomycin (Invitrogen, cat. 15140122), and 2.5% Matrigel (Corning Inc., Corning, NY, cat. 354248) for the first three passages. The 362531-283-R-J2-PDC and 782815-120-R-J1-PDC lines were cultured in 6C/Colon 1B media, which includes advanced DMEM/F-12 (Thermo Fisher Scientific, cat. 12634028), 10 mM HEPES (Thermo Fisher Scientific, cat. 15630080), 1X GlutaMAX supplement (Thermo Fisher Scientific, cat. 35050061), 0.1 mg/mL primocin (InvivoGen, San Diego, CA, cat. ant-pm-2), 10% defined fetal bovine serum, heat inactivated (HyClone Laboratories Inc., Logan, UT, cat. SH30070.03HI), 50% L-WRN conditioned media (ATCC, cat. CRL-3276), 1.25 mM N-Acetyl-L-cysteine (Sigma-Aldrich, cat. A9165), 10 mM nicotinamide (Sigma-Aldrich, cat. N0636), 1X B-27 supplement (Thermo Fisher Scientific, cat. 17504044), 1X N-2 supplement (Thermo Fisher Scientific, cat. 17502048), 50 ng/mL human EGF (Thermo Fisher Scientific, cat. PHG0311), and 10 microM Y-27632 dihydrochloride (Tocris Bioscience, cat. 1254). The K12877-001-R-J1-PDC line was cultured in 6I media, which includes all 6C/Colon 1B media plus 10 ng/mL human FGF-10 (PeproTech, cat. 100-26), 1 ng/mL human FGF-2 (PeproTech, cat. 100-18B), 1 µM prostaglandin E2 (Tocris Bioscience, cat. 2296), […] hydrocortisone (Sigma-Aldrich, cat. H4001), and […] bovine insulin (Sigma-Aldrich, cat. I6634). The K86415-001-R-J1-PDC line was cultured in 6D media, which includes all 6C/Colon 1B media components minus the L-WRN conditioned media. The 485176-168-R4-J1-PDC was cultured in PANC media, which includes all 6C/Colon 1B media plus 100 ng/mL human FGF-10 (PeproTech, cat. 100-26), 500 nM SB-431542 (Selleckchem, cat. S1067), and 10 nM gastrin (Tocris Bioscience, cat. 3006). […]
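Further: spheroids exposed to compounds for 7 days before viability read.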

`CC(Nc1ccc2c(c1)OCCn1cc(N3C(=O)OCC3C(F)F)nc1-2)C(N)=O` (configuration not stated) + C#Cc1c(F)ccc2cc(O)cc(-c3ncc4c(N5CC6CCC(C5)N6)nc(OCC56CCCN5CC(F)C6)nc4c3F)c12 was tested. Which pIC50 (second compound 0.0316 µM) did it give?
The pIC50 was > 7.50.

And the pIC50 (second compound 0.1 µM)?
Its pIC50 is > 7.50.

And the pIC50 (second compound 0.316 µM)?
Its pIC50 is > 7.50.

What about the pIC50 (second compound 1 µM) of the same compound?
The pIC50 was > 7.50.

And the pIC50 (second compound 3.16 µM)?
The pIC50 was > 7.50.

What about the pIC50 (second compound 10 µM) of the same compound?
The pIC50 was > 7.50.

And the viability, T/C (second compound 0.0316 µM, first compound 0.0316 µM)?
The viability, T/C was 45.9%.

What about the viability, T/C (second compound 0.0316 µM, first compound 0.1 µM) of the same compound?
Its viability, T/C is 39.7%.

And the viability, T/C (second compound 0.0316 µM, first compound 0.316 µM)?
The viability, T/C was 16.1%.

What about the viability, T/C (second compound 0.0316 µM, first compound 1 µM) of the same compound?
Its viability, T/C is 7.04%.

And the viability, T/C (second compound 0.0316 µM, first compound 3.16 µM)?
Its viability, T/C is 3.9%.

And the viability, T/C (second compound 0.0316 µM, first compound 10 µM)?
The viability, T/C was 3.75%.

What about the viability, T/C (second compound 0.1 µM, first compound 0.0316 µM) of the same compound?
The viability, T/C was 25.7%.

What about the viability, T/C (second compound 0.1 µM, first compound 0.1 µM) of the same compound?
Its viability, T/C is 16%.

What about the viability, T/C (second compound 0.1 µM, first compound 0.316 µM) of the same compound?
The viability, T/C was 4.89%.

And the viability, T/C (second compound 0.1 µM, first compound 1 µM)?
Its viability, T/C is 2.76%.

What about the viability, T/C (second compound 0.1 µM, first compound 3.16 µM) of the same compound?
Its viability, T/C is 1.89%.

And the viability, T/C (second compound 0.1 µM, first compound 10 µM)?
The viability, T/C was 2.88%.

And the viability, T/C (second compound 0.316 µM, first compound 0.0316 µM)?
Its viability, T/C is 18.2%.

And the viability, T/C (second compound 0.316 µM, first compound 0.1 µM)?
The viability, T/C was 7.51%.

And the viability, T/C (second compound 0.316 µM, first compound 0.316 µM)?
Its viability, T/C is 2.9%.

And the viability, T/C (second compound 0.316 µM, first compound 1 µM)?
The viability, T/C was 2.32%.

What about the viability, T/C (second compound 0.316 µM, first compound 3.16 µM) of the same compound?
Its viability, T/C is 1.28%.

What about the viability, T/C (second compound 0.316 µM, first compound 10 µM) of the same compound?
Its viability, T/C is 1.02%.

What about the viability, T/C (second compound 1 µM, first compound 0.0316 µM) of the same compound?
The viability, T/C was 9.56%.

And the viability, T/C (second compound 1 µM, first compound 0.1 µM)?
Its viability, T/C is 5.56%.

What about the viability, T/C (second compound 1 µM, first compound 0.316 µM) of the same compound?
Its viability, T/C is 2.6%.

What about the viability, T/C (second compound 1 µM, first compound 1 µM) of the same compound?
Its viability, T/C is 1.95%.

What about the viability, T/C (second compound 1 µM, first compound 3.16 µM) of the same compound?
Its viability, T/C is 1.11%.

And the viability, T/C (second compound 1 µM, first compound 10 µM)?
Its viability, T/C is 1.01%.

And the viability, T/C (second compound 3.16 µM, first compound 0.0316 µM)?
The viability, T/C was 8.36%.

And the viability, T/C (second compound 3.16 µM, first compound 0.1 µM)?
Its viability, T/C is 4.7%.

What about the viability, T/C (second compound 3.16 µM, first compound 0.316 µM) of the same compound?
The viability, T/C was 2.45%.

What about the viability, T/C (second compound 3.16 µM, first compound 1 µM) of the same compound?
The viability, T/C was 1.84%.

What about the viability, T/C (second compound 3.16 µM, first compound 3.16 µM) of the same compound?
The viability, T/C was 3.64%.

What about the viability, T/C (second compound 3.16 µM, first compound 10 µM) of the same compound?
Its viability, T/C is 0.74%.

And the viability, T/C (second compound 10 µM, first compound 0.0316 µM)?
The viability, T/C was 6.16%.

And the viability, T/C (second compound 10 µM, first compound 0.1 µM)?
Its viability, T/C is 2.81%.

And the viability, T/C (second compound 10 µM, first compound 0.316 µM)?
The viability, T/C was 1.2%.

And the viability, T/C (second compound 10 µM, first compound 1 µM)?
The viability, T/C was 0.66%.

And the viability, T/C (second compound 10 µM, first compound 3.16 µM)?
The viability, T/C was 0.3%.

And the viability, T/C (second compound 10 µM, first compound 10 µM)?
Its viability, T/C is 0.16%.
